Laboratory results as given in paper PMC3650853 (Journal of medicinal chemistry, 2010).

Experiments:
mouse CB2 (mCB2) = mouse CB2 (mCB2) (Mus musculus, UniProt P47936); experiment: Radioligand binding, displacement of [3H]CP-55,940 from mouse spleen membranes; settings: for lower affinity for CB2 compared to 6b: mCB2 Ki relative to 6b
rat CB1 (rCB1) = rat CB1 (rCB1) (Rattus norvegicus, UniProt P20272); format: binding
rats [1] = experiment: Antinociception, tail-flick procedure over 6 hours after injection; settings: rat
rCB1 receptor = rCB1 receptor (Rattus norvegicus, UniProt P20272); format: cell-based
rats [2] = experiment: Hypothermia test, core body temperature over 6 hours after injection; format: in vivo; settings: rat, 0.1 mg/kg s.c.
[3] = six-atom versus seven-atom ω-bromo side chain

rat CB1 (rCB1), sequence (P20272 whole entry): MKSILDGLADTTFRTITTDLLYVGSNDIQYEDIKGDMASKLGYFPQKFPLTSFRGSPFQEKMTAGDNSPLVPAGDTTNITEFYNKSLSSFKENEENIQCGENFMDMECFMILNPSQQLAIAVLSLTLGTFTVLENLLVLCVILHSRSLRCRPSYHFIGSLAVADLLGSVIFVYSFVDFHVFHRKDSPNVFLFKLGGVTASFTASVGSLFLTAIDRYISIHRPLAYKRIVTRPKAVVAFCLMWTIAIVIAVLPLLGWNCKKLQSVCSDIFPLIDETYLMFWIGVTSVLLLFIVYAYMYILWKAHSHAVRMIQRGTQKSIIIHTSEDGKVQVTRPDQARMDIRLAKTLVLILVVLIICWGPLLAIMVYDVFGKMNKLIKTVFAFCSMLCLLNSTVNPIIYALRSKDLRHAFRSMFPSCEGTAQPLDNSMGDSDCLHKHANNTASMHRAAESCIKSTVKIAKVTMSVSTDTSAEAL
mouse CB2 (mCB2), sequence (P47936 whole entry): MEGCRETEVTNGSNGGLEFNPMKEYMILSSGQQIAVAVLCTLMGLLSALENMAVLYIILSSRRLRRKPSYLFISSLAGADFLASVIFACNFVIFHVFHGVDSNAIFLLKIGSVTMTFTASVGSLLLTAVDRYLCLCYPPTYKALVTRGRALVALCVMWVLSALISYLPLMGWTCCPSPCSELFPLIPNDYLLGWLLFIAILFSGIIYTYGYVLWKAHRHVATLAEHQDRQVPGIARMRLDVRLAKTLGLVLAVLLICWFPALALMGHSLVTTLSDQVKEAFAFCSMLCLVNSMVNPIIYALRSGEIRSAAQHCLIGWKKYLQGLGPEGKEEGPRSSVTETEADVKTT
rCB1 receptor, sequence (P20272 whole entry): as the sequence (P20272 whole entry) above

CCCC/C=C\C1(c2cc(O)c3c(c2)OC(C)(C)[C@@H]2CCC(=O)C[C@@H]32)CCCC1 [6a, (6aR, 10aR)-3-[1-(1,2-cis-Hexen-1-yl)-cyclopent-1-yl]-6,6a,7,8,10,10a-hexahydro-1-hydroxy-6,6-dimethyl-9H-dibenzo[b,d]pyran-9-one]
lower affinity for CB2 compared to 6b (mouse CB2 (mCB2)): 5 fold

CCCCCCC1(c2cc(O)c3c(c2)OC(C)(C)[C@@H]2CCC(=O)C[C@@H]32)SCCS1 [6c, (6aR, 10aR)-3-(2-Hexyl-1,3-dithiolan-2-yl)-6,6a,7,8,10,10a-hexahydro-1-hydroxy-6,6-dimethyl-9H-dibenzo[b,d]pyran-9-one]
lower affinity for CB1 compared to 6b (rat CB1 (rCB1); rCB1 Ki relative to 6b): 4 fold | lower affinity for CB2 compared to 6b (mouse CB2 (mCB2)): 44 fold

CC1(C)Oc2cc(C3(CCCCBr)CCCC3)cc(O)c2[C@@H]2CC(=O)CC[C@H]21 [15a, (6aR,10aR)-3-[1-(4-Bromobutyl)cyclopentyl]-6,6a,7,8,10,10a-hexahydro-1-hydroxy-6,6-dimethyl-9H-dibenzo[b,d]pyran-9-one]
reduction in affinity for CB1 (rat CB1 (rCB1); [3]): 13 fold | reduction in affinity for CB2 (mouse CB2 (mCB2); [3]): 5 fold

CN1CC[C@]23c4c5ccc(O)c4O[C@H]2[C@@H](O)C=C[C@H]3[C@H]1C5 [morphine, reference compound]
time after injection by which antinociceptive effects were decreasing (rats [1]; s.c., tail-flick): 3 h | time of peak antinociceptive effects after injection (rats [1]; s.c., tail-flick): 30 to 120 min | antinociceptive effects lower than 7e-β (rats [1]; tail-flick, relative to 7e-β): approximately 100 fold

CCCCCCC1(c2cc(O)c3c(c2)OC(C)(C)[C@@H]2CC[C@@H](O)C[C@@H]32)CCC1 [7e-β, (6aR, 9R, 10aR)-3-(1-Hexyl-cyclobut-1-yl)-6a,7,8,9,10,10a-hexahydro-6,6-dimethyl-6H-dibenzo[b,d]pyran-1,9 diol]
EC50 (rCB1 receptor): 1.5 ± 0.3 nM | functional efficacy at CB1 (rCB1 receptor; cAMP assay): full agonist | onset of drug effect (hypothermia) after injection (rats [2]): 60 to 90 min | time of peak effects (hypothermia) after injection (rats [2]): 300 min | reduction of core body temperature (rats [2]; from average baseline of 38.48±0.06°C): up to 4.2±0.5 °C | antinociception, % of the maximum possible effect (rats [1]; 0.1 mg/kg 7e-β after 30-min pretreatment with 1.0 mg/kg rimonabant (SR141716A)): 85.4±5.8% | antinociception, % of the maximum possible effect (rats [1]; 0.1 mg/kg 7e-β after 30-min pretreatment with 3.0 mg/kg rimonabant (SR141716A)): 48.0±10.9% | antinociception, % of the maximum possible effect (rats [1]; 0.1 mg/kg 7e-β alone, different group of animals): 100% | doses with significant antinociceptive effects (rats [1]; s.c., tail-flick): 0.01 to 0.3 mg/kg | onset of the antinociceptive effects after injection (rats [1]; s.c., tail-flick): 60 to 120 min | time course of antinociceptive effects (rats [1]; s.c., tail-flick, 6 hour test period): generally increased over the 6 hour test period

CCCC/C=C\C1(c2cc(O)c3c(c2)OC(C)(C)[C@@H]2CCC(=O)C[C@@H]32)CCC1 [6d, (6aR, 10aR)-3-[1-(1,2-cis-Hexen-1-yl)-cyclobut-1-yl]-6,6a,7,8,10,10a-hexahydro-1-hydroxy-6,6-dimethyl-9H-dibenzo[b,d]pyran-9-one]
selectivity for CB1 over CB2 (rat CB1 (rCB1); from Ki rCB1 and mCB2, as stated in text): 11 fold
